# Where a name gives a salt, the structure may show the parent alone. Read-outs that look alike come from different tables or passages of the source.
# Key:
# human GlyT1c transporter = human GlyT1c transporter (Homo sapiens (Human), UniProt P48067); test: Radioligand binding assay using recombinant CHO cell membranes expressing human GlyT1; conditions: human GlyT1c-expressing CHO cell membranes, read-out: radioligand binding Kiapp
# Excerpt: 2. Radioligand binding assays using recombinant CHO cell membranes expressing human GlyT1: […]
# human GlyT1c = human GlyT1c (Homo sapiens (Human), UniProt P48067); test: [3H]-Glycine uptake into recombinant CHO cells expressing human GlyT1; format: cell-based; conditions: hGlyT1c_5_CHO cells, 200 nM [3H]-glycine
# Experimental: 1. [^3H]-Glycine uptake into recombinant CHO cells expressing human GlyT1: Human GlyT1c expressing recombinant hGlyT1c—5_CHO cells were plated at 20,000 cells per well in 96 well Cytostar-T scintillation microplates (Amersham Biosciences) and cultured to sub-confluency for 24 h. […] 80 μl HBSS buffer were added, followed by 10 μl inhibitor or vehicle (10% DMSO) and 10 μl [^3H]-glycine (TRK71, Amersham Biosciences) to a final concentration of 200 nM for initiation of glycine uptake. The plates were placed in a Wallac Microbeta (PerkinElmer) and continuously counted by solid phase scintillation spectrometry during up to 3 hours. Nonspecific uptake was determined in the presence of 10 μM Org24598.
# Sequence of human GlyT1c (P48067 whole entry): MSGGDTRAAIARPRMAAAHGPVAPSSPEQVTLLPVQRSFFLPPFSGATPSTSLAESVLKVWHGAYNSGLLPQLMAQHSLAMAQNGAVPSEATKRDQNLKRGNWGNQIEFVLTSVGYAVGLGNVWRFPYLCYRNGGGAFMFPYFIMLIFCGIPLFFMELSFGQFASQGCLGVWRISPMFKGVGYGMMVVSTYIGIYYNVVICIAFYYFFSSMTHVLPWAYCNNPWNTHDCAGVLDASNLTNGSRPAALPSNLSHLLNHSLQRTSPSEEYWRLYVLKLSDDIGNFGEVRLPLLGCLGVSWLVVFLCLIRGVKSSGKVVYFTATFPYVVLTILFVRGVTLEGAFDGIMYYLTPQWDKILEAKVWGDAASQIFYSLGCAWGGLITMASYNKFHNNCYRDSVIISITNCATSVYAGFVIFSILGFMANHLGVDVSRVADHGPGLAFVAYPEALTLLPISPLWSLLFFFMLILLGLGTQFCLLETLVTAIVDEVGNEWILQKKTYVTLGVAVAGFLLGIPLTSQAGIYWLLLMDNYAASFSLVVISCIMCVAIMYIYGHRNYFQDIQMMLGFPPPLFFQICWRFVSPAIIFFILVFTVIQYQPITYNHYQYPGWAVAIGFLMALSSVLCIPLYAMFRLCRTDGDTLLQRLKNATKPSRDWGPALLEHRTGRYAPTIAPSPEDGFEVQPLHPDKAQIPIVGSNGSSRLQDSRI
# Sequence of human GlyT1c transporter (P48067 whole entry): as above
Ki (human GlyT1c transporter),IC50 (human GlyT1c),Ki (human GlyT1c transporter; hydrochloride),SMILES
≤ 100000 nM,≤ 1 mM,–,"CCOC(=O)NC1CCc2ccc(OCCNS(=O)(=O)c3cccs3)cc2C1Cc1ccc(Cl)c(Cl)c1 (stereo not shown) [Example 14, {1-(3,4-Dichloro-benzyl)-7-[2-(thiophene-2-sulfonylamino)-ethoxy]-1,2,3,4-tetrahydronaphthalen-2-yl}-carbamic acid ethyl ester]"
≤ 10000 nM,≤ 1 mM,–,"CCOC(=O)NC1CCc2ccc(OCCNS(=O)(=O)c3cnn(CC)c3)cc2C1Cc1cccc(Cl)c1 (stereo not shown) [Example 61, {1-(3-Chloro-benzyl)-7-[2-(1-ethyl-1H-pyrazole-4-sulfonylamino)-ethoxy]-1,2,3,4-tetrahydro-naphthalen-2-yl}-carbamic acid ethyl ester]"
≤ 100 nM,≤ 0.001 mM,–,"CCCS(=O)(=O)N(C)CCOc1ccc2c(c1)C(Cc1ccc(Cl)c(Cl)c1)C(N)CC2 (stereo not shown) [Example 11, N-(2-(7-Amino-8-(3,4-dichlorobenzyl)-5,6,7,8-tetrahydronaphthalen-2-yloxy)ethyl)-N-methylpropane-1-sulfonamide hydrochloride]"
≤ 10000 nM,≤ 1 mM,–,"CCOC(=O)NC1CCc2ccc(OCCNS(=O)(=O)c3cnn(C)c3)cc2C1Cc1ccc(Cl)cc1Cl (stereo not shown) [Example 62, {1-(2,4-Dichloro-benzyl)-7-[2-(1-methyl-1H-pyrazole-4-sulfonylamino)-ethoxy]-1,2,3,4-tetrahydro-naphthalen-2-yl}-carbamic acid ethyl ester]"
≤ 100 nM,≤ 0.001 mM,–,"CCOC(=O)NC1CCc2ccc(OCCNS(=O)(=O)c3cn(C)cn3)cc2C1Cc1ccc(Cl)c(Cl)c1 (stereo not shown) [Example 2, Ethyl 1-(3,4-dichlorobenzyl)-7-(2-(1-methyl-1H-imidazole-4-sulfonamido)ethoxy)-1,2,3,4-tetrahydronaphthalen-2-ylcarbamate]"
≤ 10000 nM,≤ 1 mM,–,"CCOC(=O)NC1CCc2ccc(OCCNS(=O)(=O)c3ccc(C)s3)cc2C1Cc1cccc(Cl)c1 (stereo not shown) [Example 53, {1-(3-Chloro-benzyl)-7-[2-(5-methyl-thiophene-2-sulfonylamino)-ethoxy]-1,2,3,4-tetrahydro-naphthalen-2-yl}-carbamic acid ethyl ester]"
≤ 100000 nM,≤ 1 mM,–,CCOC(=O)NC1CCc2ccc(OCCNS(=O)(=O)c3cc(C)cs3)cc2C1Cc1ccc(Cl)c(Cl)c1 (stereo not shown) [Example 21]
≤ 100 nM,≤ 0.001 mM,–,"CN(C)S(=O)(=O)NCCOc1ccc2c(c1)C(Cc1ccc(Cl)c(Cl)c1)C(N)CC2 (stereo not shown) [Example 25, N′-(2-{[7-amino-8-(3,4-dichlorobenzyl)-5,6,7,8-tetrahydronaphthalen-2-yl]oxy}ethyl)-N,N-dimethylsulfuric diamide hydrochloride]"
≤ 10000 nM,–,–,"CNC1CCc2ccc(CNS(=O)(=O)c3cccc(C)c3)cc2C1Cc1ccccc1 (stereo not shown) [Example 189, N-{[8-Benzyl-7-(methylamino)-5,6,7,8-tetrahydronaphthalen-2-yl]methyl}-3-methylbenzenesulfonamide hydrochloride]"
≤ 100 nM,–,–,"CCCS(=O)(=O)NCCCc1ccc2c(c1)C(Cc1ccccc1)C(NCC)CC2 (stereo not shown) [Example 223, N-{3-[8-Benzyl-7-(ethylamino)-5,6,7,8-tetrahydronaphthalen-2-yl]propyl}propane-1-sulfonamide hydrochloride]"
≤ 100 nM,–,–,"NC1CCc2ccc(CCCNS(=O)(=O)CC3CC3)cc2C1Cc1ccc(F)cc1 (stereo not shown) [Example 208, N-{3-[7-Amino-8-(4-fluorobenzyl)-5,6,7,8-tetrahydronaphthalen-2-yl]propyl}-1-cyclopropylmethanesulfonamide hydrochloride]"
≤ 100 nM,–,–,"CCN(CC)C1CCc2ccc(CCCNS(=O)(=O)CC3CC3)cc2C1Cc1ccc(Cl)cc1 (stereo not shown) [Example 274, N-{3-[8-(4-Chlorobenzyl)-7-(diethylamino)-5,6,7,8-tetrahydronaphthalen-2-yl]propyl}-1-cyclopropylmethanesulfonamide hydrochloride]"
≤ 10 nM,–,–,"CCCS(=O)(=O)NCCCc1ccc2c(c1)C(Cc1ccc(Cl)c(Cl)c1)C(N)CC2 (stereo not shown) [Example 203, N-{3-[7-Amino-8-(3,4-dichlorobenzyl)-5,6,7,8-tetrahydronaphthalen-2-yl]propyl}propane-1-sulfonamide hydrochloride]"
≤ 10 nM,–,–,"Cn1ccc(S(=O)(=O)NCCOc2ccc3c(c2)C(Cc2ccccc2)C(N2CCC2)CC3)c1 (stereo not shown) [Example 268, N-(2-{[7-(Azetidin-1-yl)-8-benzyl-5,6,7,8-tetrahydronaphthalen-2-yl]oxy}ethyl)-1-methyl-1H-pyrrole-3-sulfonamide]"
≤ 1000 nM,–,–,"NC1CCc2ccc(OCCNS(=O)(=O)C3CC3)cc2C1Cc1ccccc1 (stereo not shown) [Example 102, Cyclopropanesulfonic acid [2-(7-amino-8-benzyl-5,6,7,8-tetrahydro-naphthalen-2-yloxy)ethyl]-amide hydrochloride]"
≤ 10 nM,–,–,"CNC1CCc2ccc(CNS(=O)(=O)C3CCC3)cc2C1Cc1ccccc1 (single isomer, unassigned; enantiomer 1) [Example 193, Enantiomer 1 of N-{[8-benzyl-7-(methylamino)-5,6,7,8-tetrahydronaphthalen-2-yl]methyl}cyclobutanesulfonamide hydrochloride]"
≤ 1000 nM,–,–,"NC1CCc2ccc(OCCNS(=O)(=O)C3CCCCC3)cc2C1Cc1ccc(Cl)c(Cl)c1 (stereo not shown) [Example 85, Cyclohexanesulfonic acid {2-[7-amino-8-(3,4-dichloro-benzyl)-5,6,7,8-tetrahydro-naphthalen-2-yloxy]-ethyl}-amide hydrochloride]"
≤ 10 nM,–,–,"O=S(=O)(CC1CC1)NCCOc1ccc2c(c1)C(Cc1cccc(F)c1)C(N1CCC1)CC2 (stereo not shown) [Example 139, N-(2-{[7-(Azetidin-1-yl)-8-(3-fluorobenzyl)-5,6,7,8-tetrahydronaphthalen-2-yl]oxy}ethyl)-1-cyclopropylmethanesulfonamide hydrochloride]"
≤ 10 nM,–,–,"CNC1CCc2ccc(OCCNS(=O)(=O)CC3CC3)cc2C1Cc1ccc(F)cc1 (stereo not shown) [Example 161, 1-Cyclopropyl-N-(2-{[8-(4-fluorobenzyl)-7-(methylamino)-5,6,7,8-tetrahydronaphthalen-2-yl]oxy}ethyl)methanesulfonamide]"
≤ 10 nM,–,–,"Cn1cc(S(=O)(=O)NCCOc2ccc3c(c2)C(Cc2cccc(Cl)c2)C(N2CCCC2)CC3)cn1 (stereo not shown) [Example 318, 1-Methyl-1H-pyrazole-4-sulfonic acid {2-[8-(3-chloro-benzyl)-7-pyrrolidin-1-yl-5,6,7,8-tetrahydro-naphthalen-2-yloxy]-ethyl}-amide hydrochloride]"
≤ 100 nM,–,–,"CCN(CCOc1ccc2c(c1)C(Cc1ccccc1)C(N)CC2)S(=O)(=O)c1cnn(C)c1 (stereo not shown) [Example 113, N-(2-(7-Amino-8-benzyl-5,6,7,8-tetrahydronaphthalen-2-yloxy)ethyl)-N-ethyl-1-methyl-1H-pyrazole-4-sulfonamide hydrochloride]"
≤ 1000 nM,–,–,"NC1CCc2ccc(CCCNS(=O)(=O)CC3CC3)cc2C1Cc1ccccc1Cl (stereo not shown) [Example 212, N-{3-[7-Amino-8-(2-chloro-benzyl)-5,6,7,8-tetrahydro-naphthalen-2-yl]-propyl}-C-cyclopropyl-methanesulfonamide hydrochloride]"
–,–,≤ 10 nM,"Cn1cnc(S(=O)(=O)NCCOc2ccc3c(c2)C(Cc2ccccc2)C(N2CCCC2)CC3)c1 (stereo not shown) [Example 116, N-(2-(8-Benzyl-7-(pyrrolidin-1-yl)-5,6,7,8-tetrahydronaphthalen-2-yloxy)ethyl)-1-methyl-1H-imidazole-4-sulfonamide hydrochloride]"

# Reference: patent US9067871B2, “Aminotetraline derivatives, pharmaceutical compositions containing them, and their use in therapy” (ABBVIE DEUTSCHLAND GMBH & CO KG, priority 2009, dated 2015)
